pIC50: −log10 of the molar value. Read-outs that look alike come from different tables or passages of the source. No end group written: not given here.
Columns and labels:
Assay in all cases: biochemical
Assay type in all cases: binding
HLA-DR DRB1*1101 (DR11) = HLA-DR DRB1*1101 (DR11) (Homo sapiens, UniProt P01903+P01911, A100R/A169T/A87E/I96F/K41T/L162R/M171V/P40S/Q125H/Q178H/Q39Y/Q99D/R42S/S66Y/T262R/V115G/W38E)
HLA-DR DRB1*1302 (DR13) = HLA-DR DRB1*1302 (DR13) (Homo sapiens, UniProt P01903+P01911, A100E/A169T/K41T/L162R/M171V/P40S/Q125H/Q178H/Q39Y/Q99D/R42S/S66N/T262R/V115G/W38E/Y61H)
HLA-DR DRB1*1302 (DR13), sequence (P01903 26-254 limits assumed, other chains not shown): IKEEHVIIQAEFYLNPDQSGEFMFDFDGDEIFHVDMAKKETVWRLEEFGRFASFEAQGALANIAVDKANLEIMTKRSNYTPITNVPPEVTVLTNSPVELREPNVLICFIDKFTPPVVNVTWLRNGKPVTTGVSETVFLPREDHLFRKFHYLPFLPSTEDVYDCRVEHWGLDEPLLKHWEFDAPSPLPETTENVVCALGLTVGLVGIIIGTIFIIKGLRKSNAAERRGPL

HLA-DR DRB1*1501 (DR15) = HLA-DR DRB1*1501 (DR15) (Homo sapiens, UniProt P01903+P01911)
HLA-DR DRB1*0301 (DR3) = HLA-DR DRB1*0301 (DR3) (Homo sapiens, UniProt P01903+P01911, A100K/A102G/A103R/A169T/F55Y/I96L/K41T/L162R/M171V/P40S/Q125H/Q178H/Q39Y/R42S/S66N/T106N/T262R/W38E/Y61H)
HLA-DR DRB1*0301 (DR3), sequence (P01903 26-254 limits assumed, other chains not shown): as above

HLA-DR DRB1*0101 (DR1) = HLA-DR DRB1*0101 (DR1) (Homo sapiens, UniProt P01903+P01911, A100R/D57E/F55L/F60I/F76Y/I96L/L162R/M171V/P40L/Q125E/R42F/V115G/Y59C)
HLA-DR DRB5*0101 (DR51) = HLA-DR DRB5*0101 (DR51) (Homo sapiens, UniProt P01903+Q30154)
HLA-DR DRB4*0101 (DR53) = HLA-DR DRB4*0101 (DR53) (Homo sapiens, UniProt P01903+P13762, G164S)
HLA-DR DRB1*0401 (DR4) = HLA-DR DRB1*0401 (DR4) (Homo sapiens, UniProt P01903+P01911, A100K/A169T/F76Y/I96L/K127E/L162R/M171V/N62H/P40V/Q125Y/R42H/S133A/S149N/S66Y/V115G/V209L/W38E)
HLA-DR DRB1*0701 (DR7) = HLA-DR DRB1*0701 (DR7) (Homo sapiens, UniProt P01903+P01911, A100R/A102G/A103Q/D57E/D86V/E43K/F76Y/K127E/L162R/M171V/P40G/Q125H/Q99D/R33Q/R42Y/R54Q/S133A/S66F/T210M/V115G/Y107V/Y59L/Y89S)

HLA-DR DRB1*1101 (DR11), sequence (P01903 26-254 limits assumed, other chains not shown): as above

LSFFLKEKGGLDGLI
pIC50 (HLA-DR DRB1*1101 (DR11); read-out: DRB1 *1101): 6.21 | pIC50 (HLA-DR DRB1*1302 (DR13); read-out: DRBI *1302): < 4.92 | pIC50 (HLA-DR DRB1*1501 (DR15); read-out: DRBI *1501): < 4.40

LSHFLKEKGGLEGL
pIC50 (HLA-DR DRB1*0301 (DR3); read-out: DRB1 *0301): < 3.47 | pIC50 (HLA-DR DRB1*0101 (DR1); read-out: DRB1 *0101): 6.27

LSHFLKEKGGLEGLI
pIC50 (HLA-DR DRB1*1101 (DR11); read-out: DRB1 *1101): 5.02 | pIC50 (HLA-DR DRB5*0101 (DR51); read-out: DRB5 *0101): < 4.69 | pIC50 (HLA-DR DRB1*1302 (DR13); read-out: DRBI *1302): < 4.92 | pIC50 (HLA-DR DRB4*0101 (DR53); read-out: DRB4 *0101): 4.73 | pIC50 (HLA-DR DRB1*1501 (DR15); read-out: DRBI *1501): < 4.40

LWWVNNESLPVSPRL
pIC50 (HLA-DR DRB1*0301 (DR3)): 6.50

MLDLQPEITDLYCYE
pIC50 (HLA-DR DRB1*1101 (DR11); read-out: DRB1 *1101): < 4.82 | pIC50 (HLA-DR DRB5*0101 (DR51); read-out: DRB5 *0101): < 4.82 | pIC50 (HLA-DR DRB1*1302 (DR13); read-out: DRBI *1302): < 4.92 | pIC50 (HLA-DR DRB4*0101 (DR53); read-out: DRB4 *0101): 7.70 | pIC50 (HLA-DR DRB1*1501 (DR15); read-out: DRBI *1501): < 4.32

MTLYQIQVMKRNQKQ
pIC50 (HLA-DR DRB5*0101 (DR51); DRB5 *0101): 7.66 | pIC50 (HLA-DR DRB1*1302 (DR13); DRBI *1302): 6.49 | pIC50 (HLA-DR DRB4*0101 (DR53); DRB4 *0101): 7.09 | pIC50 (HLA-DR DRB1*0101 (DR1); DRB1 *0101): 5.91 | pIC50 (HLA-DR DRB1*0401 (DR4); DRB1 *0401): 6.93 | pIC50 (HLA-DR DRB1*0701 (DR7); DRB1 *0701): 4.51 | pIC50 (HLA-DR DRB1*1501 (DR15); DRBI *1501): 5.61

QKKYIYNLIMNTQNK
pIC50 (HLA-DR DRB1*1302 (DR13); DRBI *1302): 7.28 | pIC50 (HLA-DR DRB4*0101 (DR53); DRB4 *0101): 7.06 | pIC50 (HLA-DR DRB1*0101 (DR1); DRB1 *0101): 7.14 | pIC50 (HLA-DR DRB1*0401 (DR4); DRB1 *0401): 7.62 | pIC50 (HLA-DR DRB1*0701 (DR7); DRB1 *0701): 4.92 | pIC50 (HLA-DR DRB1*1501 (DR15); DRBI *1501): 6.07

REYILDLHPEPTDLF
pIC50 (HLA-DR DRB1*1101 (DR11); read-out: DRB1 *1101): 5.38 | pIC50 (HLA-DR DRB5*0101 (DR51); read-out: DRB5 *0101): < 4.50 | pIC50 (HLA-DR DRB1*1501 (DR15); read-out: DRBI *1501): < 4.48

RGGMVFELANSIVLP
pIC50 (HLA-DR DRB1*1101 (DR11); read-out: DRB1 *1101): < 4.30 | pIC50 (HLA-DR DRB5*0101 (DR51); read-out: DRB5 *0101): 6.38 | pIC50 (HLA-DR DRB1*1302 (DR13); read-out: DRBI *1302): 8.36 | pIC50 (HLA-DR DRB4*0101 (DR53); read-out: DRB4 *0101): 6.39 | pIC50 (HLA-DR DRB1*1501 (DR15); read-out: DRBI *1501): 7.03

SEVYDFAFADLTVVY
pIC50 (HLA-DR DRB1*1101 (DR11); DRB1 *1101): < 4.74 | pIC50 (HLA-DR DRB1*0301 (DR3)): 5.52 | pIC50 (HLA-DR DRB5*0101 (DR51); DRB5 *0101): 4.93 | pIC50 (HLA-DR DRB1*1302 (DR13); DRBI *1302): < 4.88 | pIC50 (HLA-DR DRB1*0101 (DR1); DRB1 *0101): 7.51 | pIC50 (HLA-DR DRB1*0401 (DR4); DRB1 *0401): 6.59 | pIC50 (HLA-DR DRB1*0701 (DR7); DRB1 *0701): 5.73 | pIC50 (HLA-DR DRB1*1501 (DR15); DRBI *1501): 6.02

SHDLMLLRISEPAEL
pIC50 (HLA-DR DRB5*0101 (DR51); read-out: DRB5 *0101): ≤ 4.00 | pIC50 (HLA-DR DRB1*1302 (DR13); read-out: DRBI *1302): 8.24 | pIC50 (HLA-DR DRB4*0101 (DR53); read-out: DRB4 *0101): 7.92 | pIC50 (HLA-DR DRB1*1501 (DR15); read-out: DRBI *1501): 5.96

SHDLMLLRLSEPAK
pIC50 (HLA-DR DRB1*0301 (DR3); read-out: DRB1 *0301): 5.62 | pIC50 (HLA-DR DRB1*0101 (DR1); read-out: DRB1 *0101): 7.25 | pIC50 (HLA-DR DRB1*0401 (DR4); read-out: DRB1 *0401): 5.65

SKIMKLPKLPISNGK
pIC50 (HLA-DR DRB5*0101 (DR51); DRB5 *0101): < 4.99 | pIC50 (HLA-DR DRB1*1302 (DR13); DRBI *1302): 5.19 | pIC50 (HLA-DR DRB4*0101 (DR53); DRB4 *0101): 5.17 | pIC50 (HLA-DR DRB1*1501 (DR15); DRBI *1501): 5.45

SVTWIGAAPLILSRI
pIC50 (HLA-DR DRB1*1101 (DR11); read-out: DRB1 *1101): 5.66 | pIC50 (HLA-DR DRB1*1302 (DR13); read-out: DRBI *1302): 6.38 | pIC50 (HLA-DR DRB4*0101 (DR53); read-out: DRB4 *0101): 7.38

TCCYTCGTTVRLCIN
pIC50 (HLA-DR DRB1*0301 (DR3); read-out: DRB1 *0301): 4.70 | pIC50 (HLA-DR DRB1*0401 (DR4); read-out: DRB1 *0401): 6.14 | pIC50 (HLA-DR DRB1*0701 (DR7); read-out: DRB1 *0701): 7.20

— patent US20060079453A1, “Hla binding peptides and their uses” (priority 2002, published 2006)
